This note sets out measurements from ChEMBL document CHEMBL1157539, “Thousands of chemical starting points for antimalarial lead identification” (Nature, 2010).

The test system of this experiment is Plasmodium falciparum. Kind of experiment: GSK_TCMDC: Inhibition of Plasmodium falciparum 3D7 in whole erythrocytes, using parasite LDH activity as an index of growth. It counts as functional, organism-based. The settings on record: Plasmodium falciparum, 3D7.
`COCCCC1C(=O)OC2CCCC21` (stereo not given) displayed an XC50 of 0.699 µM.

With `Cc1ccc(Nc2nccc(N(C)c3ccc4c(c3)nc(NC(=O)Cc3ccc(Cl)c(Cl)c3)n4C)n2)cc1S(N)(=O)=O`, the XC50 was determined as 1.11 µM.

With `CCCN(CC1CC1)c1ncc(-c2cccc(CNCCC3CCCN3C)c2)cn1` (stereo not given), the XC50 was determined as 0.749 µM.

In turn, `Cc1cc(-c2ccc(O)c(CNC3CCCCC3)c2)cnc1N` returned an XC50 of 0.203 µM.

The compound `CC1(C)N=C(NC(=O)c2cc([N+](=O)[O-])cc([N+](=O)[O-])c2)N=C(N)N1OCc1cccc2ccccc12` gave an XC50 of 0.00684 µM.

`COc1ccc2c(=NN=Cc3ccccc3)cc(C)[nH]c2c1` registered an XC50 of 0.846 µM.

Consider `COc1cc(C)nc2ccc(NC(=O)c3cc(C(F)(F)F)cc(C(F)(F)F)c3)cc12`, for which the XC50 came out at 0.912 µM.

As for `CC1(C)CCC(=Cc2ccc(Cl)cc2)CC1(O)Cn1ccnc1` (stereo not given), the XC50 was found to be 0.743 µM.

Turning to `N=C(N)NN=CC(=O)Nc1ccc(Cl)cc1`, the XC50 amounted to 0.814 µM.

For `OCCN1CCN(Cc2ccc(-c3ccc(-c4nc5cc(F)ccc5[nH]4)cc3)cc2)CC1`, the XC50 is 0.567 µM.

For the compound `COc1ccc2[nH]ccc(=NN=Cc3ccncc3)c2c1`, the XC50 was found to be 0.584 µM.

`CCOc1cc(C(=O)NCCN(CC)c2cccc(C)c2)ccc1-c1nc2cc(Cl)ccc2[nH]1` displayed an XC50 of 0.809 µM.

In the case of `COc1cc2ncnc(Nc3ccc(Br)c(Cl)c3)c2cc1OC`, the XC50 is 0.718 µM.

The compound `COc1ccc2ncc(Cl)c(N3CCC(CCNCc4ccc5c(n4)NC(=O)CS5)CC3)c2c1` had an XC50 of 0.961 µM.

With `Cc1cc(N(C)CCCN(C)C)nc(Nc2ccc(Cl)cc2)n1`, the XC50 stood at 1.02 µM.

The compound `CCOC(=O)c1ccc(NC(=O)NCCCC2CCCN(CCCCCNC(=O)/C=C/c3ccc(Cl)c(Cl)c3)C2)cc1` (stereo not given) yielded an XC50 of 0.855 µM.

`CC1(C)NC(N)=NC(=N)N1OCc1cccc(Cl)c1Cl`: the XC50 is 0.0032 µM.

`COc1ccc(NC(=O)Nc2ccc(C)c(-c3ccc(C(=O)Nc4ccncc4)cc3)c2)cc1` had an XC50 of 0.572 µM.

Compound `CC(C)C(NC(=O)c1c(F)cccc1F)C(=O)Nc1ccc(Cc2nc3ccccc3s2)cc1` (stereo not given) returned an XC50 of 0.448 µM.

The compound `Cc1cccc2nc(-c3cccc(-c4cccc(NC(=O)Nc5ccc(F)c(F)c5F)c4)c3)[nH]c12` had an XC50 of 0.108 µM.

`CSc1ccc(NC(=O)Nc2cc(C)nc3ccccc23)cc1Br` came in with an XC50 of 0.778 µM.

Regarding `O=C(Nc1cccc(OC2CCN(Cc3ccc(F)cc3)CC2)c1)c1ccc(C(F)(F)F)cc1`, the XC50 is 0.952 µM.

`CCN(CC)C(=S)N/N=C1/C(=O)Nc2c(C)cccc21` had an XC50 of 0.863 µM.

Consider `O=C(NOCCOc1ccccc1)c1ccccc1`, for which the XC50 was determined as 0.317 µM.

In turn, `COc1ccc(Cl)cc1NC(=O)C(C)Nc1ccc(-c2ccccc2)cc1` (stereo not given) came in with an XC50 of 0.556 µM.

For `CN(C)CCCNc1ncnc2c1[nH]c1ccc(Br)cc12`, the XC50 stood at 0.319 µM.

`O=C(/C=C/c1ccc(Cl)c(Cl)c1)N1CCC(CN2CCC(Cc3nc4ccccc4[nH]3)CC2)CC1` registered an XC50 of 0.254 µM.

As for `COc1ccc(NC(=O)c2ccc(-c3nc(-c4ccc(Cl)cc4)cs3)cc2)cc1N1CCN(C)CC1`, the XC50 amounted to 0.921 µM.

Turning to `CCc1ccc(CN2CCC(NC(=O)c3ccc(-c4ccc(N(C)C)cc4)s3)CC2)cc1`, the XC50 came out at 1.21 µM.

For `CCOc1cc2ncnc(Nc3ccc(OCc4ccccc4F)c(Cl)c3)c2cc1OCC`, the XC50 amounted to 0.601 µM.

Take `COc1ccc2c(CNCCCCCCNCc3c(OC)ccc4cc(OC)ccc34)c(OC)ccc2c1`: the XC50 came out at 0.56 µM.

The compound `CCCCCN1CCC(NC(=O)c2ccc(C(=O)Nc3ccc(C(C)C)cc3)cc2)C1` (stereo not given) came in with an XC50 of 0.954 µM.

With `COc1cc(OC)c(OC)cc1C=NN=c1cc(C)[nH]c2ccccc12`, the XC50 turned out to be 0.299 µM.

`CCN(CCCN1CCCCC1)c1cc(C)nc(Nc2cccc(C(F)(F)F)c2C)n1`: the XC50 is 0.609 µM.

Compound `COc1cc2c(cc1COc1ccccc1)CCN1Cc3cc(OC)c(OC)cc3CC21` (stereo not given) showed an XC50 of 0.15 µM.

Compound `CCN(CC)CCCNc1cc[n+]([O-])c2cc3ccccc3cc12` had an XC50 of 0.871 µM.

Take `COc1ccc2c(c1)OC(C)(C)CC2=NOS(=O)(=O)c1ccc(C)cc1`: the XC50 was 0.208 µM.

For the compound `CCNCc1ccc(-c2cccc(-c3nc4ccccc4[nH]3)c2)cc1`, the XC50 came out at 0.55 µM.

The compound `CCOc1ccc(-c2nc3cc(-c4nc5cc(N6CCN(C)CC6)ccc5[nH]4)ccc3[nH]2)cc1` yielded an XC50 of 0.108 µM.

Consider `COc1cccc(Nc2nc(C)cc(NC3CCN(Cc4ccccc4)CC3)n2)c1`, for which the XC50 stood at 0.693 µM.

As for `Cc1ccccc1CNC(=O)Nc1cccc(-c2csc(NC(=N)N)n2)c1`, the XC50 was 0.7 µM.

Consider `O=C(NCCCCN1CCN(c2cccc3ccccc23)CC1)c1ccc(NC(=O)c2ccc(Cl)cc2)cc1`, for which the XC50 was 0.358 µM.

In the case of `Cc1cc(N)nc2ccc(CNCCc3ccccc3Br)cc12`, the XC50 was determined as 0.12 µM.

In the case of `O=C(N[C@H]1CCN(Cc2ccc(OCCN3CCNCC3)c3ccccc23)C1)c1ccc(Cl)c(Cl)c1`, the XC50 came to 0.748 µM.

In the case of `COc1ccccc1NC(=O)OC(COc1ccc(N)cc1)CN1CC=C(c2ccccc2)CC1` (stereo not given), the XC50 amounted to 1.04 µM.

For the compound `CNc1ccc(CNCc2ccc(-c3ccc(-c4nc5cc(C(F)(F)F)ccc5[nH]4)s3)cc2)cc1`, the XC50 was 0.177 µM.

The compound `COc1ccc(/C=C/C(=O)NCCCCCN2CCC(c3c[nH]c4ccccc34)CC2)cc1O` showed an XC50 of 0.957 µM.

In turn, `CN1CC[C@@H](Oc2cc(Nc3nc(-c4ccc(C#N)cc4)cs3)ccc2Cl)C1` returned an XC50 of 0.821 µM.

Compound `C=CCN(C(=O)c1ccc(Cl)c([N+](=O)[O-])c1)c1nc(-c2ccccc2)cs1` yielded an XC50 of 0.398 µM.

Turning to `COc1cccc(N(CCCN2C(=O)c3cccc4cccc(c34)C2=O)C(=O)c2ccccc2C)c1`, the XC50 is 0.795 µM.

In the case of `Fc1ccc2[nH]cc(CCNCc3ccc(-c4cccc(-c5nc6ccccc6[nH]5)c4)cc3)c2c1`, the XC50 was 0.174 µM.

Compound `CC(=O)Nc1ccc([N+](=O)[O-])c2c(Br)cccc12` gave an XC50 of 0.636 µM.

`O=C(COc1ccccc1Cl)N1CCc2cc3nccc(N4CCN5CCC[C@H]5C4)c3cc21`: the XC50 was determined as 0.744 µM.

Consider `CCOC(C(=O)OCC1CCCN1C(C)C)(c1ccccc1)c1ccccc1` (stereo not given), for which the XC50 is 0.763 µM.

Regarding `O=C(Nc1ccc(-c2nc3ccccc3[nH]2)cc1)c1ccc(S(=O)(=O)N2CCCCCC2)cc1`, the XC50 turned out to be 0.411 µM.

Take `O=C(Nc1cccc(-c2csc(-c3ccccc3)n2)c1)c1cccs1`: the XC50 is 0.8 µM.

As to `COc1ccc2ccccc2c1C=NN=c1cc[nH]c2ccc(F)cc12`, the XC50 came out at 1.11 µM.

In turn, `O=C(C=Cc1ccc(Cl)c(Cl)c1)NCCCCCN1CCCC(CCCNS(=O)(=O)c2cccc(C(F)(F)F)c2)C1` (stereo not given) displayed an XC50 of 0.962 µM.

In turn, `COc1ccc2c(c1)CCCC2C(C)NCC(O)c1cccc(C(F)(F)F)c1` (stereo not given) registered an XC50 of 0.345 µM.

For `COc1cc(NC(=O)C(c2ccc(Cl)cc2)C(C)C)cc(OC)c1` (stereo not given), the XC50 came out at 0.723 µM.

`CC[C@H]1CN2CC[C@H]1C[C@H]2[C@H](O)c1cc(N2CCC3CCCCC3C2)nc2ccc(OC)cc12` (stereo not given in full) returned an XC50 of 0.17 µM.

With `CC(=O)Nc1ccc(NC(=O)c2cc(-c3cc(Cl)ccc3O)n[nH]2)cc1`, the XC50 stood at 0.176 µM.

Compound `CCCCCCn1c(Sc2ccc(C#N)c([N+](=O)[O-])c2)nnc1-c1cc(OC)cc(OC)c1` registered an XC50 of 0.771 µM.

As for `COc1cc(Nc2nccc(-c3c(-c4cccc(NC(=O)c5c(F)cccc5F)c4)nn4ccccc34)n2)cc(OC)c1OC`, the XC50 was determined as 0.0773 µM.

Turning to `O=[N+]([O-])c1cccc(-c2ccc(C=NNc3cc(N4CCCC4)nc(N4CCCC4)n3)o2)c1`, the XC50 stood at 0.713 µM.
